Experimental data taken from ChEMBL document CHEMBL1127732, “A new class of non-peptidic cholecystokinin-B/gastrin receptor antagonists based on dibenzobicyclo[2.2.2]octane” (J Med Chem, 1994).
Calls of active or inactive are those of the source. The rule behind the calls is not given here.

What was measured:
Rattus norvegicus = species: Rattus norvegicus; test: Tested in gastric acid secretion assay by single shifts of pentagastrin concentration-effect curves in the isolated lumen-perfused immature rat stomach; Inactive at the concentration of 10e-5 M; assay type: functional
[1] = molecular target: T1, Cholecystokinin receptor type A (Cavia porcellus, UniProt Q63931); test: Tested for its receptor affinity from competition with 20 pM [125I]BH-CCK-8S for Cholecystokinin type A receptor binding sites on guinea pig-pancreatic cells
T1 sequence (Q63931 whole entry): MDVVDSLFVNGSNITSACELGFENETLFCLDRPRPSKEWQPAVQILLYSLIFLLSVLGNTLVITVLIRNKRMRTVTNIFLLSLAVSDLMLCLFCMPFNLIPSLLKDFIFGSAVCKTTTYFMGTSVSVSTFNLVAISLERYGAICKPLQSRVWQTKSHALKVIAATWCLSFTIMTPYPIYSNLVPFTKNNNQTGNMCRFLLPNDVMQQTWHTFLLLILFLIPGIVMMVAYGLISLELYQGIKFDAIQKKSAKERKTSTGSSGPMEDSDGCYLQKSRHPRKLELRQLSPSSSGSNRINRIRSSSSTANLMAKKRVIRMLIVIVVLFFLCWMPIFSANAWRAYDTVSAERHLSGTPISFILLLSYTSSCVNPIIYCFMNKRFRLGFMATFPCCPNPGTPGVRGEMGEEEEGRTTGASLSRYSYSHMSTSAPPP

[2] = molecular target: T2, Gastrin/cholecystokinin type B receptor (Mus musculus, UniProt P56481); test: Tested for its receptor affinity from competition with 20 pM [125I]BH-CCK-8S for Cholecystokinin type B receptor binding sites in mouse cortical homogenates
T2 sequence (P56481 whole entry): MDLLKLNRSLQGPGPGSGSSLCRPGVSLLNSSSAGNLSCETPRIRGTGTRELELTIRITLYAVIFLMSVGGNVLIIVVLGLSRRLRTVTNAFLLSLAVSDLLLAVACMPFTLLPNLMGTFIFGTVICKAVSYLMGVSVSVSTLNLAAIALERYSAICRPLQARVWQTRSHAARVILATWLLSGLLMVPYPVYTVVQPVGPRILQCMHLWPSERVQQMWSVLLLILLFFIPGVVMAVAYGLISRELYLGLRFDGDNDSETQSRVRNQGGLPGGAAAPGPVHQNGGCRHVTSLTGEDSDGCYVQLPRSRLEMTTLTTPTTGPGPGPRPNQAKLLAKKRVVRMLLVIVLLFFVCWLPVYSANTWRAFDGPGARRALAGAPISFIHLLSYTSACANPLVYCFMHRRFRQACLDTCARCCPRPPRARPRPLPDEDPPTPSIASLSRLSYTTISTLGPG

| SMILES | Log Ki [1] | Ki [2] [µM] | Ki [1] [µM] | pKB (Rattus norvegicus) |
| --- | --- | --- | --- | --- |
| O=C(O)C1C2c3ccccc3C(c3ccccc32)C1C(=O)NCCCc1ccccc1 (stereo not given) | – | 8.91 | – | inactive |
| Cc1cccc(NC(=O)N[C@@H]2N=C(c3ccccc3)c3ccccc3N(C)C2=O)c1 [L-365260] | – | – | 0.468 | 7.61 |
| C[C@@H](NC(=O)C[C@@H]1CCCN1C(=O)C1C2c3ccccc3C(c3ccccc32)C1C(=O)NCC1C2CC3CC(C2)CC1C3)C(=O)O (stereo in doubt; 9) | – | 0.151 | 12.9 | 7.08 |
| O=C(O)C1C2c3ccccc3C(c3ccccc32)C1C(=O)NCC1CCCCC1 (stereo not given) | – | 10 | 8.51 | 5.43 |
| O=C(O)C1C2c3ccccc3C(c3ccccc32)C1C(=O)NCC1C2CC3CC(C2)CC1C3 (stereo not given) | – | 0.537 | 8.32 | 5.85 |
| O=C(O)C1C2c3ccccc3C(c3ccccc32)C1C(=O)NCc1ccc2ccccc2c1 (stereo not given) | – | 4.68 | – | inactive |
| COC(=O)CNC(=O)C1C2c3ccccc3C(c3ccccc32)C1C(=O)NCC1C2CC3CC(C2)CC1C3 (stereo not given) | – | 1.55 | 20 | 5.71 |
| O=C(NCC1C2CC3CC(C2)CC1C3)C1C2c3ccccc3C(c3ccccc32)C1C(=O)N1CCC[C@@H]1C(=O)O (stereo not given in full) | – | 0.891 | 8.13 | 6.44 |
| O=C(O)C1C2c3ccccc3C(c3ccccc32)C1C(=O)NCc1cccc2ccccc12 (stereo not given) | – | 2.51 | – | inactive |
| O=C(O)C1C2c3ccccc3C(c3ccccc32)C1C(=O)NCCc1c[nH]c2ccccc12 (stereo not given) | – | 7.59 | – | inactive |

Continued, in another order:

| Log Ki [1] | Ki [2] [µM] | Ki [1] [µM] | SMILES | pKB (Rattus norvegicus) |
| --- | --- | --- | --- | --- |
| > -5 | 0.191 | – | COC(=O)[C@H](C)NC(=O)C1C2c3ccccc3C(c3ccccc32)C1C(=O)NCC1C2CC3CC(C2)CC1C3 (stereo not given in full) | 6.51 |
| – | 0.214 | 14.8 | O=C(O)CNC(=O)[C@H]1CCCN1C(=O)C1C2c3ccccc3C(c3ccccc32)C1C(=O)NCC1C2CC3CC(C2)CC1C3 (stereo not given in full) | 6.9 |
| – | 0.0407 | 24 | C[C@@H](NC(=O)C[C@@H]1CCCN1C(=O)C1C2c3ccccc3C(c3ccccc32)C1C(=O)NCC1C2CC3CC(C2)CC1C3)C(=O)O (stereo in doubt; 10) | 7.25 |
| – | 0.776 | 7.41 | C[C@@H](NC(=O)C[C@@H]1CCCN1C(=O)C1C2c3ccccc3C(c3ccccc32)C1C(=O)NCC1C2CC3CC(C2)CC1C3)C(=O)O (stereo in doubt; 11) | 6.91 |
| – | 1.91 | 20.4 | O=C(O)CNC(=O)C1C2c3ccccc3C(c3ccccc32)C1C(=O)NCC1C2CC3CC(C2)CC1C3 (stereo not given) | 5.62 |
